Data on three molecules can be found in patent US12054562B2, “Cell-permeable inhibitory agent and methods of use thereof in treatment of cognitive and mood disorders” (priority 2015, dated 2024).

The test system of one series is healthy subjects. The note with it: cited from earlier work.
A further series concerns patients. The note with it: cited from earlier work.
Series [1] concerns the target T1, al subunit-containing GABAA receptors (Homo sapiens, UniProt P14867+P18507).
T1 sequence (P14867 28-456): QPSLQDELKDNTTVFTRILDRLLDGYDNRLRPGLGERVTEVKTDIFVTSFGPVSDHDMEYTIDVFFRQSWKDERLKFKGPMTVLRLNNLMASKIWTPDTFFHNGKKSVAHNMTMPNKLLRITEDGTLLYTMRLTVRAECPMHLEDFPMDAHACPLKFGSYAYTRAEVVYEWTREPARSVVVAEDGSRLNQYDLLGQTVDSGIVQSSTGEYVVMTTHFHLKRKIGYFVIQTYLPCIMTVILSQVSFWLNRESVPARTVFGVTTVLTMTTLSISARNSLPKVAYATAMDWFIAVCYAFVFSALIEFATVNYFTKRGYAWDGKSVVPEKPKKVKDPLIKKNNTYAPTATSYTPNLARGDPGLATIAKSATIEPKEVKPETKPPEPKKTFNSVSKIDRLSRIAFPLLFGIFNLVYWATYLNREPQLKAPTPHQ
T1 sequence (P18507 40-467 limits assumed): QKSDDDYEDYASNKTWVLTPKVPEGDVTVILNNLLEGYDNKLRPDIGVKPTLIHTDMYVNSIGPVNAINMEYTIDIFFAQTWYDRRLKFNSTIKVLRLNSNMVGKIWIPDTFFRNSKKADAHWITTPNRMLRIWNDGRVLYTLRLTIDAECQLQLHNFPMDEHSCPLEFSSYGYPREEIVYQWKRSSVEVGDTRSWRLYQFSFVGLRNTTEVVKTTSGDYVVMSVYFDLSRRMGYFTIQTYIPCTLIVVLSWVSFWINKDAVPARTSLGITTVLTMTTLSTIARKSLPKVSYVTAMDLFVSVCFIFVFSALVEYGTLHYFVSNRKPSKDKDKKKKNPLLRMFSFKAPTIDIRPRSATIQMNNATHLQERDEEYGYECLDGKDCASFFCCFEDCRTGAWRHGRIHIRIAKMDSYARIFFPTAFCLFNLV
T1 sequence (P28472 26-473 partner): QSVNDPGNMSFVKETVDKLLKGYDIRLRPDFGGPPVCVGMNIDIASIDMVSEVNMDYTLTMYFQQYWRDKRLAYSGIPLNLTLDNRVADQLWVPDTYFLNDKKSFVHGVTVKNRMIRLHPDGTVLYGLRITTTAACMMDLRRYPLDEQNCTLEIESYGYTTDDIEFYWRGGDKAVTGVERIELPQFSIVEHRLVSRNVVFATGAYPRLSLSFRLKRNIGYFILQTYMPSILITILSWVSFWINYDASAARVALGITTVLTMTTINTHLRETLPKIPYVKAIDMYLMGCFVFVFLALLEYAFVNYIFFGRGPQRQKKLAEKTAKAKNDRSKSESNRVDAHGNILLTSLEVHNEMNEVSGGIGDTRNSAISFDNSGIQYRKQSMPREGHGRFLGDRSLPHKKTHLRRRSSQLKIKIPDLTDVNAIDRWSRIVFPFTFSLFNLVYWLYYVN
The settings on record: at high concentrations; cited from earlier work.

Series [2] concerns α5GABAA receptor cell-surface expression. The experiment in a line: Receptor cell-surface ELISA assay in cultured hippocampal neurons. It counts as cell-based, mouse. The note with it: medium from astrocytes treated with etomidate 1 μM, 1 hr; 24 hrs incubation. The protocol: This experimental cell culture model was used to test the effects of the inhibitory peptide on an overexpression of α5GABAA receptors on the surface of neurons. The medium from astrocytes that were treated with etomidate (1 μM, 1 hr) (conditioned medium) was collected, and the medium bathing cultured hippocampal neurons was exchanged with the astrocyte-conditioned medium. The cells were incubated at 37° C., 5% CO2 with the peptide or scramble peptide (2 μM). After 24 hrs incubation, the cells were used for receptor cell-surface ELISA assay. The cells were fixed in 4% paraformaldehyde for 20 min in the presence (permeabilized) or absence (non-permeabilized) of 1% Triton-X100. The cells, after 3 times wash with cold PBS and blocked with 5% bovine album solution, were incubated with a α5 antibody (Santa Cruz Biotech Inc.) at 4° C. overnight. The next day the cells were thoroughly washed with PBS and incubated with the horseradish peroxidase (HRP)-conjugated secondary antibody for 2 hrs. With HRP substrate added and color developed in the medium, the results were determined with microplate reader.
The cell surface expression of α5 subunit was presented as the ratio of the colorimetric reading under non-permeabilized conditions to those permeabilized conditions. Consistent with the previous report, etomidate increases α5GABAA receptor surface expression. This increase was blocked by the specific peptide, but not the scramble peptide (FIG. 6A).
For astrocyte culture, cortical astrocytes were isolated from embryonic day 18 (E18) mouse embryos. Cells were allowed to grow to confluence in MEM and 10% fetal bovine serum (FBS; Life Technologies, Grand Island, New York) for 14 d. Cells were then enzymatically dissociated with trypsin-EDTA (0.05%; Life Technologies, Grand Island, New York), and passaged three times to obtain a nearly pure astrocytic culture. Astrocytes were then plated at a density of 25,000 cells per dish. […]
A general note: ELISA stands for enzyme-linked immunosorbent assay.

Series [3] deals with GABAA receptor-mediated tonic current in hippocampal neurons. The series is described as follows: Whole-cell voltage-clamp recordings of tonic current in astrocyte-neuron co-cultures. It counts as cell-based, mouse. The note with it: etomidate 1 μM, 1 h; measured 24 h after treatment.
In the next series the test system is radixin. The series is described as follows: Western blot of radixin phosphorylation in hippocampus of treated mice. The format is in vivo, mouse. The settings on record: etomidate 8 mg/kg, i.p., hippocampi 24 hrs later. The protocol:
We next asked whether injection of inhibitory peptide, when administered to mice in vivo by I.P. injection, reduced the level of α5GABAA receptors expressed in the hippocampus. To test whether the peptide reduces α5GABAA receptor cell-surface expression in vivo, we took advantage of a mouse model that we developed recently (Zurek, et al., 2014), in which up-regulation of α5GABAA receptor cell surface expression causes memory deficits. Adult mice (22-25 g) were treated with etomidate (8 mg/kg, i.p.), and sacrificed 24 hrs later according to a protocol approved by the Animal Care Committee of the University of Toronto. The hippocampi were collected and subject to experiments. We first measured the level of radixin phosphorylation, because radixin phosphorylation is required for the recruitment of α5GABAA receptors to extrasynaptic sites of the neurons (Loebrich et al., 2006; Hausrat et al., 2015). The antibody against threonine at 564 of radixin, which is specific for radixin phosphorylation involving α5GABAA receptor extra-synaptic trafficking, was used for these studies (Choii et al., 2015; Hausrat et al., 2015). […] We next examined whether the inhibitory peptide prevented α5GABAA receptor from trafficking to surface membrane in vivo by studying ex vivo brain slices. […]
For orientation: A western blot detects proteins with antibodies after separation by electrophoresis.

Series [4] has as its system etomidate-induced memory deficits in mice. The series is described as follows: Novel object recognition task, prevention paradigm. It counts as in vivo, mouse. The settings on record: Etom 8 mg/kg i.p., NOR next day. An excerpt: The novel object recognition task involves the presentation of two identical objects for visual inspection (in the case of humans and non-human primates) and exploration in the case of rodents. After a delay, one of the original objects is presented together with a new (novel) object. Humans and animals normally spend time more time looking at (or in the case of mice, exploring) the novel object. Indeed, the test relies on the innate preference of humans and animals for novelty. The inspection or interaction time differs only if the familiar object is recognized. Otherwise, the subject spends an equal amount of time inspecting both objects. […]
In the present study, mice were handled two times a day, 5 min each before start of behavioral experiments. Object recognition was assessed in a circle opaque chamber with the diameter of 38.5 cm in a regular lit room. […] Movement and interaction with the objects was recorded with a video camera that was mounted above the chamber. The exploratory behavior and mouse activity was analyzed blindly by a person with a good training and the software EthoVision, XT v11.5 provided by the Noldus Information Tech Inc., (Leesburg VA, USA). […] Memory was assessed by measuring the novelty preference ratio (i.e., the ratio of time spent exploring the novel object to the time spent exploring both objects). […]

Series [5] deals with T2, α5 subunit-radixin interaction (Mus musculus, UniProt P26043).
T2 construct: tissue lysate prepared from the hippocampus of adult mice; from tissue; host or cells: hippocampus of adult mice (C57BL/6J×SvEv)
T2 sequence (P26043 whole entry): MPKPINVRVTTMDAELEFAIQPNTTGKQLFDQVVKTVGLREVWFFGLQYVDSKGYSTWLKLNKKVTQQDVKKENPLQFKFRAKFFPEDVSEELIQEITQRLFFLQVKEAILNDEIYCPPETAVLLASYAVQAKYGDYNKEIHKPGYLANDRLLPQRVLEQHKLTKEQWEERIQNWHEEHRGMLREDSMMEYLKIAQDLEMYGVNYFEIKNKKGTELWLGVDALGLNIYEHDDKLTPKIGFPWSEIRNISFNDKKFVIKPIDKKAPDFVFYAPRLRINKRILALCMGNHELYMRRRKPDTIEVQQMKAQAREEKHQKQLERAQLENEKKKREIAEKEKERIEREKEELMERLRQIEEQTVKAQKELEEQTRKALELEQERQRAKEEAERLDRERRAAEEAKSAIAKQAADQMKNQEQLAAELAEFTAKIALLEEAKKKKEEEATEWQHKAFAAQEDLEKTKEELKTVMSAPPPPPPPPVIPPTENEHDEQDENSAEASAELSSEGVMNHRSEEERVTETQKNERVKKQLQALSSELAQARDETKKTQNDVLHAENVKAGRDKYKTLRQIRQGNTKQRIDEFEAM
The series is described as follows: Co-immunoprecipitation and Western blot of α5 subunit-radixin coupling in hippocampal tissue lysate. The note with it: 20 μM peptide without TAT sequence, one hour incubation. The format is binding. The method, then: The experiments used tissue lysate prepared from the hippocampus of adult mice (C57BL/6J×SvEv, 2-4 month old, male). Hippocampal tissue was homogenized in ice-cold RIPA buffer (20 mM Tris-HCL, pH 7.5, 150 mM NaCl, 1 mM Na2EDTA, 1 mM EGTA, 1% NP-40, 1% sodium deoxycholate, 2.5 mM sodium pyrophosphate, 1 mM β-glycerophosphate) supplemented with 1 mM sodium orthovanadate and 1% protease inhibitor cocktail and 1% phosphatase inhibitor cocktail (Roche Diagnostics, GmbH, Manheim Germany). The tissue lysate was subsequently spun at 14,000 rpm for 30 min with the Microfuge 22R Centrifuge (Beckman Coulter™, Brea, California, US). The supernatant was collected and frozen at −20 C°. The next day, the supernatant, after thawing, was re-centrifuged at 14,000 rpm for another 30 min to clear the potential undissolved or pellet substances. After spinning twice, the supernatant was collected for subsequent experiments.
One hour following the incubation, the antibodies (2-4 μg) against either α5 subunit (cat #sc—31417, Santa Cruz Biotechnology, Inc., 10410 Finnell St. Dallas, TX, 75220, USA) or radixin (cat #ab91312, Abcam Inc., c/o 913860, PO Box 4090 Stn A, Toronto, ON M5W 0E9), or 4 μg of non-specific IgG protein (cat #sc—2028, Santa Cruz Biotechnology, Inc., 10410 Finnell St. Dallas, TX, 75220, USA), were added to the lysate solution. […]

Regarding `Cc1cc(-c2nnc3c4ccccc4c(OCc4cn(C)nn4)nn23)no1` [α5IA], the ethanol-induced impaired performance result with healthy subjects was “improves”. For the same molecule, the “reason clinical trial was stopped” value in the series on patients is given as “renal toxicity”. Moreover, the “action on al subunit-containing GABAA receptors” value in series [1] was “activates”.

For `CCOC(=O)c1cncn1[C@H](C)c1ccccc1` [etomidate], the “α5GABAA receptor surface expression” value in series [2] is reported as “increases”. In series [3], the “amplitude of the tonic current” value is on record as “caused an increase”. Moreover, in the series with radixin, the “radixin phosphorylation (pThr564)” value is “increases” and the “total radixin protein level” value is recorded as “does not alter”. Further, the “preference for the novel object (NOR)” value in series [4] was “showed no preference”.

For the molecule “TYFGRKNALWKAWKGD (Scramble peptide) [reference compound]”, the “association between α5 subunit and radixin” value in series [5] is given as “did not reduce this association”.
